Experiments:
Assay type in all cases: cell-based
[1] = biological target: T1, calcium-sensing receptor CaSR (Homo sapiens, UniProt P41180); test: calcium mobilization assay in PEAKrapid cells transiently expressing human CaSR, with mock control
T1 sequence (P41180 20-1078): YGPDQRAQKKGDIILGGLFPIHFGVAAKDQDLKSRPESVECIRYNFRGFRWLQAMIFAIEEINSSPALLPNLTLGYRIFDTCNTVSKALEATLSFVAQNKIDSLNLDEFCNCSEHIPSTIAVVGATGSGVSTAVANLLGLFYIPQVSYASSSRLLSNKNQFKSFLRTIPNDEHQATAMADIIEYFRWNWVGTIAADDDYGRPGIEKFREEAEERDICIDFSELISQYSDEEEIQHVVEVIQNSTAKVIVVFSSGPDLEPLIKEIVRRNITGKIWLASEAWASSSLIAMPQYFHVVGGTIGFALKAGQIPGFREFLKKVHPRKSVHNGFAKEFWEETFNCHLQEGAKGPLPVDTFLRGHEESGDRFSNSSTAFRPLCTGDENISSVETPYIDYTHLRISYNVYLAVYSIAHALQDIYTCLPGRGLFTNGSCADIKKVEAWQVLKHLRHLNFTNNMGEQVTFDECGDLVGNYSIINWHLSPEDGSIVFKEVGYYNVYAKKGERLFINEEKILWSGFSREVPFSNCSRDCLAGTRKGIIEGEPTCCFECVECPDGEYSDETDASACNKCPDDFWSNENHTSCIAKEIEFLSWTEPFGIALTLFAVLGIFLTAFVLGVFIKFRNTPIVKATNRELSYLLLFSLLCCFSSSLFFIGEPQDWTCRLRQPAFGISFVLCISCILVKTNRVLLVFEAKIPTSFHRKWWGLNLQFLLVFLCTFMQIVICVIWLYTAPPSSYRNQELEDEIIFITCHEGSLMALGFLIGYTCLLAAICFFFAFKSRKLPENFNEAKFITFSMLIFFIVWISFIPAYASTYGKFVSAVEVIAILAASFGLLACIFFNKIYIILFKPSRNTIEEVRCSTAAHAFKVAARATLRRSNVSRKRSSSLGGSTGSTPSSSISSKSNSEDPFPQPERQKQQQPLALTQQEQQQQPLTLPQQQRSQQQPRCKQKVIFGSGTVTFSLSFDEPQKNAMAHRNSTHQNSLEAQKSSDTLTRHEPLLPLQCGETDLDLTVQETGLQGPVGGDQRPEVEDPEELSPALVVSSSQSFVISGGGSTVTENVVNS

[2] = biological target: T1, calcium-sensing receptor CaSR; test: as above; remark: listed apart in the source
[3] = biological target: T1, calcium-sensing receptor CaSR; test: calcium mobilization assay in PEAKrapid cells transiently expressing human CaSR; potentiation of CaCl2 response at […]

| SMILES | calcium mobilization assay in PEAKrapid cells transiently expressing human CaSR, [2] | further results |
| --- | --- | --- |
| CC(C)CC=O [IVAH, isovaleraldehyde] | – | EC50 [1]: 681 µM |
| CCC=O [propionaldehyde] | CaSR was activated by propionaldehyde (A,I) | – |
| CCCC=O [butanal] | CaSR was activated by propionaldehyde (A,I), butanal (B,I) | – |
| CCCCCC=O [hexanal] | 2-methylbutylaldehyde (D,I), pentanal (E,I), hexanal (F,I) | – |
| CCC(C)C=O (centres unmarked) [2-methylbutylaldehyde] | CaSR was activated by propionaldehyde (A,I), butanal (B,I), isobutylaldehyde (C,I), 2-methylbutylaldehyde (D,I) | – |
| CCCCC=O [pentanal] | 2-methylbutylaldehyde (D,I), pentanal (E,I), hexanal (F,I) | – |
| CC(C)C=O [isobutylaldehyde] | CaSR was activated by propionaldehyde (A,I), butanal (B,I), isobutylaldehyde (C,I) | – |
| CSCCC=O [MTN, methional] | – | calcium mobilization assay in PEAKrapid cells transiently expressing human CaSR, [3]: only methional activated CaSR, while neither of the methional analogues tested activated CaSR |
